Results reported in ChEMBL document CHEMBL2016439, “Antitumor activity of annonaceous acetogenins in HepS and S180 xenografts bearing mice” (Bioorg Med Chem Lett, 2012).
The source made the active and inactive calls. No cut-off for these calls is given here.

Legend:
[1] = Antitumor activity against mouse HepS cells allografted in Kunming mouse assessed as tumor growth inhibition at 15 ug/kg, ip qd administered 24 hrs post challenge for 10 days; type: functional; conditions: read-out: GI
CCRF S-180 [2] = assay: Antitumor activity against mouse S180 cells allografted in Kunming mouse assessed as tumor growth inhibition at 15 ug/kg, ip qd administered 24 hrs post challenge for 10 days; type: functional; conditions: CCRF S-180, ip, read-out: GI
CCRF S-180 [3] = assay: Antitumor activity against mouse S180 cells allografted in Kunming mouse assessed as tumor growth inhibition at 60 ug/kg, ip qd administered 24 hrs post challenge for 10 days; type: functional; conditions: CCRF S-180, ip, read-out: GI
HepS [4] = assay: Antitumor activity against mouse HepS cells allografted in ip dosed Kunming mouse assessed as tumor growth inhibition administered qd 24 hrs post challenge for 10 days; type: functional, organism-based
[5] = Antitumor activity against mouse HepS cells allografted in Kunming mouse assessed as tumor growth inhibition at 60 ug/kg, ip qd administered 24 hrs post challenge for 10 days; type: functional; conditions: read-out: GI
CCRF S-180 [6] = assay: Antitumor activity against mouse S180 cells allografted in ip dosed Kunming mouse assessed as tumor growth inhibition administered qd 24 hrs post challenge for 10 days; type: functional, organism-based
Mus musculus [7] = assay: Toxicity in Kunming mouse allografted with mouse HepS cells assessed as adverse effects at 60 ug/kg, ip qd administered 24 hrs post challenge for 10 days; type: organism-based; conditions: in vivo, 0.06 mg/kg
Mus musculus [8] = assay: Toxicity in Kunming mouse allografted with mouse S180 cells assessed as adverse effects at 60 ug/kg, ip qd administered 24 hrs post challenge for 10 days; type: organism-based, CCRF S-180; conditions: in vivo, 0.06 mg/kg
[9] = Antitumor activity against mouse HepS cells allografted in Kunming mouse assessed as tumor growth inhibition at 40 ug/kg, ip qd administered 24 hrs post challenge for 10 days; type: functional; conditions: read-out: GI
HepS [10] = assay: Antitumor activity against mouse HepS cells allografted in Kunming mouse assessed as improved spleen index at 40 ug/kg, ip qd administered 24 hrs post challenge for 10 days; type: functional, organism-based
CCRF S-180 [11] = assay: Antitumor activity against mouse S180 cells allografted in Kunming mouse assessed as improved spleen index at 40 ug/kg, ip qd administered 24 hrs post challenge for 10 days; type: functional, organism-based
CCRF S-180 [12] = assay: Antitumor activity against mouse S180 cells allografted in Kunming mouse assessed as tumor growth inhibition at 40 ug/kg, ip qd administered 24 hrs post challenge for 10 days; type: functional; conditions: CCRF S-180, ip, read-out: GI

Compound	inhibition in vivo at 0.015 mg/kg [1]	inhibition in vivo at 0.015 mg/kg (CCRF S-180 [2])	inhibition in vivo at 0.06 mg/kg (CCRF S-180 [3])	growth inhibition (GI) (HepS [4])	inhibition in vivo at 0.06 mg/kg [5]	growth inhibition (GI) (CCRF S-180 [6])	Activity (Mus musculus [7])	Activity (Mus musculus [8])	inhibition in vivo at 0.04 mg/kg [9]	Activity (HepS [10])	Activity (CCRF S-180 [11])	inhibition in vivo at 0.04 mg/kg (CCRF S-180 [12])
CCCCCCCCCCCC[C@@H](O)[C@H]1CC[C@H]([C@H](O)CCCCCC(O)CCCCCCC2=C[C@H](C)OC2=O)O1 (some centres undefined)	61.5%	43.9%	48.3%	Dose-dependent effect	67.3%	Dose-dependent effect	–	–	–	–	–	–
CCCCCCCCCC[C@H](O)[C@H]1CC[C@H]([C@H]2CC[C@H]([C@H](O)CCCCCCCCCCCCC3=C[C@H](C)OC3=O)O2)O1 [BULLANIN]	32.5%	42.3%	63.9%	Dose-dependent effect	70.9%	Dose-dependent effect	–	–	–	–	–	–
CCCCCCCCCC[C@@H](O)[C@@H]1CC[C@@H]([C@@H]2CC[C@@H]([C@H](O)CCCCCCCCCC(O)CC3=CC(C)OC3=O)O2)O1 (some centres undefined) [BULLATACIN]	63.4%	65.8%	–	Dose-dependent effect	–	Dose-dependent effect	–	–	–	–	–	–
CCCCCCCCCC[C@H](O)[C@H]1CC[C@H]([C@H]2CC[C@H]([C@H](O)CCCCCCCCCC[C@@H](O)CC3=C[C@H](C)OC3=O)O2)O1 [BULLATACIN]	–	–	–	–	–	–	Toxic	Toxic	–	–	–	–
CC(=O)O[C@H]1C(=O)[C@@]2(C)[C@H]([C@H](OC(=O)c3ccccc3)[C@]3(O)C[C@H](OC(=O)[C@H](O)[C@@H](NC(=O)c4ccccc4)c4ccccc4)C(C)=C1C3(C)C)[C@]1(OC(C)=O)CO[C@@H]1C[C@@H]2O [PACLITAXEL]	–	–	–	–	–	–	–	–	62.2%	Active	Active	48.9%
CCCCCC[C@H](O)CCC[C@H](O)[C@H]1CC[C@H]([C@H](O)CC[C@H](O)[C@@H]2CC[C@@H](CCCCCCCCCC3=C[C@H](C)OC3=O)O2)O1 [SQUAMOSTATIN A]	15%	52.7%	54.2%	Dose-dependent effect	31.2%	Dose-dependent effect	–	–	–	–	–	–
CCCCCCCCCC[C@@H](O)[C@@H]1CC[C@@H]([C@H](O)CC[C@@H](O)[C@@H]2CC[C@@H](CCCCCCCCCC3=C[C@H](C)OC3=O)O2)O1 [SQUAMOSTATIN E]	34.2%	27.2%	51.1%	Dose-dependent effect	51.3%	Dose-dependent effect	–	–	–	–	–	–
